{"source": "paper PMC8553829", "about": "“Improvement of a synthetic live bacterial therapeutic for phenylketonuria with biosensor-enabled enzyme engineering” (Nature Communications, 2021)", "biological_target": "T1, StlA (PAL, phenylalanine ammonia lyase) (Photorhabdus laumondii, UniProt Q7N4T3)", "T1 construct": "gene plu2234; full-length, untagged; aTc-inducible low-copy plasmid in E. coli Nissle 1917; soluble cell lysate", "T1 sequence (Q7N4T3 1-532)": "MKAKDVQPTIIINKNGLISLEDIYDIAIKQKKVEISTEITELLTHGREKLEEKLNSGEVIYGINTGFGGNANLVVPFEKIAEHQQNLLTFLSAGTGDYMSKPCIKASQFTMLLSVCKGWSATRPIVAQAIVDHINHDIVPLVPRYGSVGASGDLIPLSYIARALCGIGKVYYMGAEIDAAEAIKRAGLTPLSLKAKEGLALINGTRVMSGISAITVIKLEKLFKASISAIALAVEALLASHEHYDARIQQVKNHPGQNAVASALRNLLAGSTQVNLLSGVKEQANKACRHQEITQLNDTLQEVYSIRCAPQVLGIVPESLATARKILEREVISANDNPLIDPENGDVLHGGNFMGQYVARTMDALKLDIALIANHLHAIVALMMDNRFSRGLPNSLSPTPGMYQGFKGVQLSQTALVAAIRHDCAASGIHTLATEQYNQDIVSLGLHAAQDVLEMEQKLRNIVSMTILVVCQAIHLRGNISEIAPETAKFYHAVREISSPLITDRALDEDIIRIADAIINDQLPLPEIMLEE", "assay": "TCA formation followed at A290, nonlinear Michaelis-Menten fit", "type": "biochemical", "conditions": "soluble lysate of E. coli Nissle (EP2315), 10 µg total protein per well; M9 0.5% glucose, 37 °C", "excerpt": "TCA formation followed at A290, nonlinear Michaelis-Menten fit on StlA (PAL, phenylalanine ammonia lyase)", "data": [{"compound": "N[C@@H](Cc1ccccc1)C(=O)O", "note": "[Phe]", "values": [{"measurement": "KM (mM Phe)", "result": "1.69 ± 0.37", "unit": "mM"}]}]}
